Literature values as cited in patent publication US20160354364A1, “Pharmaceutical Compositions” (Alpharma Pharmaceuticals LLC, priority 2008, published 2016).

Settings: in vivo

In the case of `O=C1CC[C@@]2(O)[C@H]3Cc4ccc(O)c5c4[C@@]2(CCN3CC2CC2)[C@H]1O5` [Naltrexone, naltrexone], the “time of absorption following oral administration” value is given as at most 1 h.
